The results in this text go back to patent US7825278B2, “Substituted enaminones, their derivatives and uses thereof” (The Regents of the University of California, priority 2004, dated 2010).

The target in this assay is GABAA receptor complex (GRC). The assay is described as follows: [35S]TBPS binding assay (In Vitro Binding Assay 1). To be noted: rat cortex P2 homogenate; 2 nM [35S]TBPS; 90 min at 25° C. The method, then:
[^35S]TBPS binding assay. The cortex from male Sprague-Dawley rats (weighing 160-200 g) was removed immediately after decapitation and dissected over ice. A P2 homogenate was prepared for binding assay as previously described (Gee, Mol. Pharmacol. 30: 218-225, 1986.). The tissue was homogenized in 0.32 M sucrose (J. T. Baker Chemical Co., Phillipsburg, N.J., USA) with a Teflon-coated pestle, followed by centrifugation at 1,000×g for 10 min. The supernatant was collected and centrifuged at 9,000×g for 20 min. The resultant P2 pellet was resuspended in ice-cold 50 mM sodium potassium phosphate (J. T. Baker) buffer (pH 7.4) containing 200 mM NaCl (J. T. Baker) and used immediately in binding assays. A 2 nM concentration of [^35S]TBPS (86 Ci/mmol; New England Nuclear, Boston, Mass., USA) was incubated with 100 μl of tissue homogenate (10% w/v) in the presence or absence of 5 μM GABA (Sigma Chem. Co., St. Louis, Mo.) and 5 μl aliquots of test drug dissolved in dimethyl sulfoxide (Sigma Chem. Co.) (≦10 μl of solvent used in all assays). At the concentration (≦1%) used, dimethyl sulfoxide had no effect on specific [^35S]TBPS binding. All assays were brought to a final volume of 1 ml with 50 mM sodium potassium phosphate buffer (pH 7.4) containing 200 mM NaCl. Non-specific binding was defined as binding in the presence of 2 μM TBPS (NEN, Boston, Mass.) and accounted for ˜30% of the total binding. Assays were terminated after a 90-min steady-state incubation at 25° C. by rapid filtration through glass fiber filters (no. 32; Schleicher & Schuell, Keene, N.H.). Filter-bound radioactivity was quantified by liquid scintillation spectrophotometry. The data were evaluated by nonlinear regression (GraphPad, Inc., San Diego, Calif.) to obtain IC50 (concentration at which half-maximal inhibition of radioligand occurs) values.

As for `CCCNC(=O)C(=CNc1ccc(C)cc1)C(=O)c1ccccc1C` [2-methyl-α-[[(4-methylphenyl)amino]methylene]-β-oxo-N-propyl-benzenepropanamide], the IC50 turned out to be 100 nM and the “Imax (inhibition of [^35S]TBPS binding)” value was found to be 100%.
On to `CCOC(=O)C(=CNc1ccccc1Cl)C(=O)c1ccccc1Cl` [ethyl 2-chloro-α-[[(2-chlorophenyl)-amino]methylene]-β-oxobenzenepropionate], for which the IC50 came out at 420 nM and the “Imax (inhibition of [^35S]TBPS binding)” value turned out to be 100%.
On the same counts, the results for `CCOC(=O)C(=CNc1ccc(C#N)cc1)C(=O)c1ccccc1Cl` [ethyl 2-chloro-α-[[(4-cyanophenyl)-amino]methylene]-β-oxobenzenepropionate] are 60 nM and 100%.
On the same counts, the results for `C#Cc1ccc(NC=C(C(=O)OCC)C(=O)c2ccccc2Cl)cc1` [ethyl 2-chloro-α-[[(4-ethynylphenyl)-amino]methylene]-β-oxobenzenepropionate] are 10 nM and 95%.
On the same counts, the results for `CCOC(=O)C(=CNc1ccc(I)cc1)C(=O)c1ccccc1Cl` [ethyl 2-chloro-α-[[(4-iodophenyl)-amino]methylene]-β-oxobenzenepropionate] are 20 nM and 86%.
With `CCOC(=O)C(=CNc1ccc(F)cc1)C(=O)c1cccc2ccccc12` [ethyl α-[(4-fluorophenyl)amino]methylene]-β-oxo-1-naphthalenepropionate], the IC50 was found to be 200 nM and the “Imax (inhibition of [^35S]TBPS binding)” value is recorded as 81%.
On the same counts, the results for `C#Cc1ccc(NC=C(C(=O)NCCC)C(=O)c2ccccc2C)cc1` [α-[[(4-ethynylphenyl)amino]methylene]-2-methyl-β-oxo-N-propyl-benzenepropanamide] are 20 nM and 95%.
